From publication PMC7456477, “Pharmacokinetic Study of Thirteen Ingredients after the Oral Administration of Flos Chrysanthemi Extract in Rats by UPLC-MS/MS” (BioMed Research International, 2020)

Columns and labels:
[1] = Pharmacokinetic study in rat plasma after oral administration of Flos Chrysanthemi extract (UPLC-MS/MS); format: in vivo, Sprague-Dawley rats; conditions: rats, oral Flos Chrysanthemi extract 10 g/kg; for AUC(0-inf) / Cmax / Tmax / half-life / AUC / k el: male, Sprague-Dawley, rat, plasma, n = 6; for AUC: read-out: AUC(0 − tn); for k el: read-out: Ke (converted); for Detection in plasma over the sampling time: result in words
Protocol: Six male Sprague-Dawley rats (250 ± 5 g) were purchased from Huafukang Bioscience Co., Inc. (Beijing, China). The rats were adapted to the facility for a week. Before the experiments, rats were fasted for 12 h, although drinking water was readily accessible. Flos Chrysanthemi extract was dissolved in CMC-Na aqueous solution and orally administered to the animals once at 10 g/kg. Blood samples (220 μL) were taken from the orbital venous plexus of rats at 0, 0.03, 0.08, 0.17, 0.25, 0.5, 1, 2, 4, 6, 8, 10, 12, and 24 h after extract administration. Blood samples were promptly centrifuged at 6000 rpm for 10 min, and plasma samples were collected. The obtained plasma was stored at -80°C until analysis. “Drug and Statistics 3.0” software (Medical College of Wannan, China) was used to calculate pharmacokinetic parameters. The animal protocol was approved by the Animal Ethics Committee of Tianjin University of Traditional Chinese Medicine (TCM-LAEC20190056).
Plasma samples from rats orally administered with Flos Chrysanthemi extract (10.0 g/kg) were analysed with UPLC-MS/MS. Plasma concentration-time curves are shown in Figure 3, and the primary pharmacokinetic parameters of each analyte are summarized in Table 6.

[2] = Stability of analytes in rat plasma (QC samples under four storage conditions); format: in vitro ADME; conditions: n = 6
Protocol: To study the stability of all compounds in rat plasma, low, medium, and high concentrations of QC samples were tested under the following test conditions: stored at an autosampler for 12 hours, stored at room temperature for 6 hours, put through three freeze/thaw cycles, and stored at -80°C for 14 days. Three QC concentrations were tested for each of the above conditions.
The stability of all 13 analytes during sample collection and processing was evaluated with the various storage conditions being tested on spiked plasma samples at three QC concentrations.

[3] = spiked concentration 1000 ng/mL
[4] = spiked concentration 4000 ng/mL
[5] = spiked concentration 2000 ng/mL

SMILES	AUC(0-inf) [1]	Cmax [1]	Tmax [1]	half-life [1]	AUC [1]	k el [1]	Measured concentration, -80°C for 14 days ([2]; spiked concentration 5 ng/mL)	Measured concentration, Autosampler for 12 h ([2]; spiked concentration 5 ng/mL)	Measured concentration, Room temperature for 6 h ([2]; spiked concentration 5 ng/mL)	Measured concentration, Three freeze-thaw cycles ([2]; spiked concentration 5 ng/mL)	Measured concentration, -80°C for 14 days ([2]; spiked concentration 50 ng/mL)	Measured concentration, Autosampler for 12 h ([2]; spiked concentration 50 ng/mL)	Measured concentration, Room temperature for 6 h ([2]; spiked concentration 50 ng/mL)	Measured concentration, Three freeze-thaw cycles ([2]; spiked concentration 50 ng/mL)	Measured concentration, -80°C for 14 days [2, 3]	Measured concentration, Autosampler for 12 h [2, 3]	Measured concentration, Three freeze-thaw cycles [2, 3]	Measured concentration, -80°C for 14 days ([2]; spiked concentration 200 ng/mL)	Measured concentration, Autosampler for 12 h ([2]; spiked concentration 200 ng/mL)	Measured concentration, Room temperature for 6 h ([2]; spiked concentration 200 ng/mL)	also measured
O=C(/C=C/c1ccc(O)c(O)c1)O[C@H]1[C@H](O)C[C@](O)(C(=O)O)C[C@H]1O [Cryptochlorogenic acid]	431 ± 197 ng·h/mL	89.4 ± 45.3 ng/mL	0.61 ± 0.33 h	6.9 ± 3.4 h	319 ± 97.3 ng·h/mL	3.33e-05 s⁻¹	5.2 ± 0.2 ng/mL	5.0 ± 0.2 ng/mL	5.3 ± 0.1 ng/mL	5.9 ± 0.1 ng/mL	46.7 ± 1.4 ng/mL	44.5 ± 1.3 ng/mL	49.1 ± 1.5 ng/mL	54.1 ± 0.3 ng/mL	1075.7 ± 52.9 ng/mL	1069.3 ± 16.2 ng/mL	1122.8 ± 6.8 ng/mL	–	–	–	Measured concentration, Room temperature for 6 h [2, 3]: 1012.9 ± 11.1 ng/mL
O=c1cc(-c2ccc(O)c(O)c2)oc2cc(O[C@@H]3O[C@H](CO)[C@@H](O)[C@H](O)[C@H]3O)cc(O)c12 [Cynaroside]	19100 ± 20000 ng·h/mL	2550 ± 1120 ng/mL	6.38 ± 3.8 h	5.01 ± 4.44 h	19100 ± 19900 ng·h/mL	7.78e-05 s⁻¹	–	–	–	–	–	–	–	–	–	–	–	205.0 ± 4.0 ng/mL	203.4 ± 6.1 ng/mL	182.4 ± 0.6 ng/mL	Measured concentration, -80°C for 14 days ([2]; spiked concentration 20 ng/mL): 21.1 ± 0.8 ng/mL; Measured concentration, Autosampler for 12 h ([2]; spiked concentration 20 ng/mL): 20.0 ± 0.2 ng/mL; Measured concentration, Room temperature for 6 h ([2]; spiked concentration 20 ng/mL): 20.6 ± 0.9 ng/mL; Measured concentration, Three freeze-thaw cycles ([2]; spiked concentration 20 ng/mL): 22.6 ± 1.0 ng/mL; Measured concentration, Three freeze-thaw cycles ([2]; spiked concentration 200 ng/mL): 219.8 ± 1.0 ng/mL; Measured concentration, -80°C for 14 days [2, 4]: 4060.3 ± 121.9 ng/mL; Measured concentration, Autosampler for 12 h [2, 4]: 4158.6 ± 15.3 ng/mL; Measured concentration, Room temperature for 6 h [2, 4]: 4360.1 ± 32.4 ng/mL; Measured concentration, Three freeze-thaw cycles [2, 4]: 4152.9 ± 34.1 ng/mL
COc1ccc([C@@H]2CC(=O)c3c(O)cc(O[C@@H]4O[C@H](CO[C@@H]5O[C@@H](C)[C@H](O)[C@@H](O)[C@H]5O)[C@@H](O)[C@H](O)[C@H]4O)cc3O2)cc1O [Hesperidin]	–	–	–	–	–	–	–	–	–	–	–	–	–	–	–	–	–	209.5 ± 2.3 ng/mL	222.7 ± 2.0 ng/mL	213.7 ± 2.1 ng/mL	Detection in plasma over the sampling time [1]: detected only at the first few blood sampling points; Measured concentration, -80°C for 14 days ([2]; spiked concentration 1 ng/mL): 1.1 ± 0.1 ng/mL; Measured concentration, Autosampler for 12 h ([2]; spiked concentration 1 ng/mL): 1.0 ± 0.1 ng/mL; Measured concentration, Room temperature for 6 h ([2]; spiked concentration 1 ng/mL): 1.1 ± 0.1 ng/mL; Measured concentration, Three freeze-thaw cycles ([2]; spiked concentration 1 ng/mL): 1.1 ± 0.1 ng/mL; Measured concentration, -80°C for 14 days ([2]; spiked concentration 10 ng/mL): 9.5 ± 0.2 ng/mL; Measured concentration, Autosampler for 12 h ([2]; spiked concentration 10 ng/mL): 8.8 ± 0.1 ng/mL; Measured concentration, Room temperature for 6 h ([2]; spiked concentration 10 ng/mL): 10.2 ± 0.4 ng/mL; Measured concentration, Three freeze-thaw cycles ([2]; spiked concentration 10 ng/mL): 10.0 ± 0.1 ng/mL; Measured concentration, Three freeze-thaw cycles ([2]; spiked concentration 200 ng/mL): 218.3 ± 0.7 ng/mL
O=c1c(O[C@@H]2O[C@H](CO)[C@H](O)[C@H](O)[C@H]2O)c(-c2ccc(O)c(O)c2)oc2cc(O)cc(O)c12 [Hyperoside]	–	–	–	–	–	–	4.8 ± 0.2 ng/mL	3.9 ± 0.1 ng/mL	4.4 ± 0.1 ng/mL	5.7 ± 0.1 ng/mL	50.3 ± 1.8 ng/mL	41.8 ± 1.4 ng/mL	48.7 ± 1.9 ng/mL	54.5 ± 2.1 ng/mL	997.8 ± 19.4 ng/mL	803.4 ± 2.5 ng/mL	1110.2 ± 4.5 ng/mL	–	–	–	Detection in plasma over the sampling time [1]: detected only at the first few blood sampling points
O=C(/C=C/c1ccc(O)c(O)c1)O[C@@H]1[C@H](O)C[C@@](O)(C(=O)O)C[C@H]1OC(=O)/C=C/c1ccc(O)c(O)c1 [Isochlorogenic acid C]	405 ± 228 ng·h/mL	101 ± 73.3 ng/mL	0.4 ± 0.31 h	0.24 ± 0.22 h	309 ± 149 ng·h/mL	0.0013 s⁻¹	5.6 ± 0.1 ng/mL	4.6 ± 0.4 ng/mL	5.2 ± 0.2 ng/mL	5.9 ± 0.1 ng/mL	43.3 ± 0.3 ng/mL	45.1 ± 0.6 ng/mL	48.1 ± 0.8 ng/mL	55.3 ± 0.4 ng/mL	1080.3 ± 37.8 ng/mL	1047.3 ± 12.4 ng/mL	1052.4 ± 38.4 ng/mL	–	–	–	Measured concentration, Room temperature for 6 h [2, 3]: 1049.2 ± 32.0 ng/mL
O=C(O)[C@H]1O[C@@H](Oc2cc(O)c3c(=O)cc(-c4ccc(O)c(O)c4)oc3c2)[C@H](O)[C@@H](O)[C@@H]1O [Luteolin 7-O-glucuronide]	6730 ± 2280 ng·h/mL	749 ± 195 ng/mL	0.5 ± 0.27 h	6.17 ± 1.43 h	6450 ± 1810 ng·h/mL	3.33e-05 s⁻¹	–	–	–	–	–	–	–	–	–	–	–	–	–	–	Measured concentration, -80°C for 14 days ([2]; spiked concentration 10 ng/mL): 8.8 ± 0.2 ng/mL; Measured concentration, Autosampler for 12 h ([2]; spiked concentration 10 ng/mL): 9.6 ± 0.3 ng/mL; Measured concentration, Room temperature for 6 h ([2]; spiked concentration 10 ng/mL): 10.9 ± 0.8 ng/mL; Measured concentration, Three freeze-thaw cycles ([2]; spiked concentration 10 ng/mL): 11.1 ± 0.1 ng/mL; Measured concentration, -80°C for 14 days ([2]; spiked concentration 100 ng/mL): 99.7 ± 0.3 ng/mL; Measured concentration, Autosampler for 12 h ([2]; spiked concentration 100 ng/mL): 90.7 ± 0.4 ng/mL; Measured concentration, Room temperature for 6 h ([2]; spiked concentration 100 ng/mL): 110.9 ± 1.2 ng/mL; Measured concentration, Three freeze-thaw cycles ([2]; spiked concentration 100 ng/mL): 112.6 ± 0.5 ng/mL; Measured concentration, -80°C for 14 days [2, 5]: 1930.7 ± 22.5 ng/mL; Measured concentration, Autosampler for 12 h [2, 5]: 1960.1 ± 38.5 ng/mL; Measured concentration, Room temperature for 6 h [2, 5]: 2214.4 ± 17.9 ng/mL; Measured concentration, Three freeze-thaw cycles [2, 5]: 2225.7 ± 9.3 ng/mL
O=c1cc(-c2ccc(O)c(O)c2)oc2cc(O)cc(O)c12 [Luteolin]	25100 ± 2230 ng·h/mL	2080 ± 307 ng/mL	0.5 h	8.89 ± 4.01 h	24200 ± 2110 ng·h/mL	2.78e-05 s⁻¹	–	–	–	–	–	–	–	–	–	–	–	195.1 ± 2.6 ng/mL	181.7 ± 0.8 ng/mL	193.5 ± 3.3 ng/mL	Measured concentration, -80°C for 14 days ([2]; spiked concentration 20 ng/mL): 17.4 ± 0.3 ng/mL; Measured concentration, Autosampler for 12 h ([2]; spiked concentration 20 ng/mL): 21.3 ± 0.4 ng/mL; Measured concentration, Room temperature for 6 h ([2]; spiked concentration 20 ng/mL): 20.3 ± 0.3 ng/mL; Measured concentration, Three freeze-thaw cycles ([2]; spiked concentration 20 ng/mL): 23.2 ± 0.7 ng/mL; Measured concentration, Three freeze-thaw cycles ([2]; spiked concentration 200 ng/mL): 223.7 ± 1.5 ng/mL; Measured concentration, -80°C for 14 days [2, 4]: 4195.2 ± 15.1 ng/mL; Measured concentration, Autosampler for 12 h [2, 4]: 3656.3 ± 33.7 ng/mL; Measured concentration, Room temperature for 6 h [2, 4]: 4419.0 ± 9.2 ng/mL; Measured concentration, Three freeze-thaw cycles [2, 4]: 4475.1 ± 11.8 ng/mL
